For 26 molecules, IC50 and EC50 results are on record in patent publication US10669272B2, “Substituted naphthyridinone compounds useful as T cell activators” (BRISTOL-MYERS SQUIBB COMPANY, priority 2018, dated 2020).

The structures appear in SMILES notation. Like-named read-outs stand apart in the source and are kept apart here.

In one assay the target is T1, human DGKζ (Homo sapiens, UniProt Q13574).
T1 construct: TVMV protease cleavage site (C); Hexa-His (C); made in house; host or cells: Sf9 insect cells (baculovirus, Bac-to-Bac)
Nature of the assay: DGKζ LIPGLO assay (extruded liposome substrate), in vitro DGK inhibition. As to conditions: read-out: DGKz LIPGLO IC50. In kind it is biochemical.

For the next assay, the system named is Human venous whole blood. Nature of the assay: Human whole blood IFN-γ assay.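 Further: blood from healthy donors exposed to compound for 1 h before stimulation with anti-CD3 and anti-CD28 at 1 µg/mL each, IFN-γ quantified in supernatant by AlphaLISA.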 Conditions: human whole blood, read-out: INFg Whole Blood Normalized Agonist EC50. In kind it is cell-based.
For another assay, the target named is T2, human DGKα (Homo sapiens, UniProt P23743).
T2 construct: TVMV protease cleavage site (C); Hexa-His (C); made in house; host or cells: Sf9 insect cells (baculovirus, Bac-to-Bac)
Nature of the assay: DGKα LIPGLO assay (extruded liposome substrate), in vitro DGK inhibition. As to conditions: read-out: DGKa LIPGLO IC50. Type of assay: biochemical.

Where [1] appears, read: Homo sapiens, 24 h, anti-CD3 plus anti-CD28, 24 hours, 3 μM reference compound = 100% activation.
[2] abbreviates: anti-CD3 plus anti-CD28, 24 hours, 3 μM reference compound = 100% activation.
The mark [3] stands for this setting: normalized to 3 μM reference compound with anti-CD3 plus anti-CD28 as 100% activation.
The mark [4] stands for this setting: Homo sapiens, 24 h, normalized to 3 μM reference compound with anti-CD3 plus anti-CD28 as 100% activation.

T1 sequence (Q13574 with tags, fused parts or gaps isoform Q13574-4): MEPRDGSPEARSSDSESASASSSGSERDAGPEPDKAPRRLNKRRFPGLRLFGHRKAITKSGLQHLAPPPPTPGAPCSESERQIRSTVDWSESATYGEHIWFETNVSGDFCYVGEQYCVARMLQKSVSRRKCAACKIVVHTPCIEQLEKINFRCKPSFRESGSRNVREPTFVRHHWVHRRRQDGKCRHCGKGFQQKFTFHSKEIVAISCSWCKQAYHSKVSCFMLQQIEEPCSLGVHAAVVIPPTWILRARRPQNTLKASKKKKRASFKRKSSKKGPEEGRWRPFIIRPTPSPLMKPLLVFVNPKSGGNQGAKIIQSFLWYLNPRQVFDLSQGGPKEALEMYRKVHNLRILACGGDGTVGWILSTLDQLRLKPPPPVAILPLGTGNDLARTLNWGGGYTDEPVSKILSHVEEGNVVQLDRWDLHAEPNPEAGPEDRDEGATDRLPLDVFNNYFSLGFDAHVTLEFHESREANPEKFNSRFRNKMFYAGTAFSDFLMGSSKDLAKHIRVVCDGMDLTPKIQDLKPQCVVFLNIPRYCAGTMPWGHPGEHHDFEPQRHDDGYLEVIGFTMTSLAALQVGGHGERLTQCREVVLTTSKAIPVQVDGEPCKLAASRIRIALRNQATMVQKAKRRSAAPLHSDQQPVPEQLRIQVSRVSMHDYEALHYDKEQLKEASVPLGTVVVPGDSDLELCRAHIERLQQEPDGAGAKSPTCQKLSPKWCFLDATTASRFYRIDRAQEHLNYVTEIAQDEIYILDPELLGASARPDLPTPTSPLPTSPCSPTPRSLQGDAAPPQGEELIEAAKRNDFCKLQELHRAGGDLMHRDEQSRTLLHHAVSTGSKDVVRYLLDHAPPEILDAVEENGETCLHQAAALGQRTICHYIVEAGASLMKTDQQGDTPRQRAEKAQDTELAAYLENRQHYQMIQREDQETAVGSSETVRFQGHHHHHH
T2 sequence (P23743 with tags, fused parts or gaps): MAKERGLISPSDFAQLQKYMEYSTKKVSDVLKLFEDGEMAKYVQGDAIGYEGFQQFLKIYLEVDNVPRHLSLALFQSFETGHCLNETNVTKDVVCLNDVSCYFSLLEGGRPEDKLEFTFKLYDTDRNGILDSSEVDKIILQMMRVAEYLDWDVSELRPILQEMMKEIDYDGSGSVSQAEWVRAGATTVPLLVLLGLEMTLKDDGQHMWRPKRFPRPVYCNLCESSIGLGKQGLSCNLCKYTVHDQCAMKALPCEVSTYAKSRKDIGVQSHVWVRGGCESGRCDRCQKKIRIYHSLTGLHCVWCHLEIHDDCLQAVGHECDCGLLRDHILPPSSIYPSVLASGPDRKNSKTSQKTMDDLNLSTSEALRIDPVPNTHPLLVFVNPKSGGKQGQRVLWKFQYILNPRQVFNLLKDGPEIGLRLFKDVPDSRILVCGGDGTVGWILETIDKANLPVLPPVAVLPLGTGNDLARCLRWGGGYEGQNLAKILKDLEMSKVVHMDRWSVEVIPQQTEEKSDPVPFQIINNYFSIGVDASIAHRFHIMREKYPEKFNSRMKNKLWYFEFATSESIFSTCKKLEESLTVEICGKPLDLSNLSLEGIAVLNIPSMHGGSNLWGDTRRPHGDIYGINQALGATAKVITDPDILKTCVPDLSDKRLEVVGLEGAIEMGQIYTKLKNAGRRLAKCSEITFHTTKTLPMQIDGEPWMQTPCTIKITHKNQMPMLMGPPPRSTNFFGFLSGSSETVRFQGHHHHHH
Procedure for Human venous whole blood: Human Whole Blood IFN-γ Assay
Human venous whole blood (22.5 μL per well), obtained from healthy donors, was pre-treated with compounds for one hour at 37° C. in a humidified 95% air/5% CO2 incubator. The blood was stimulated with 2.5 μL anti-human CD3 and anti-CD28 mAb at a final concentration of 1 μg/mL each for 24 hours at 37° C. IFN-γ in the supernatants was measured using AlphLISA kit (Cat # AL217).

Regarding `CC(c1ccc(OC(F)(F)F)cc1)N1CCN(c2c(C#N)c(=O)n(C)c3ccc(C#N)nc23)C[C@H]1C` (single isomer, unassigned) [Example 958], the IC50 at human DGKζ (DGKζ liposome (LIPGLO) assay) came to 28000 nM; on human DGKα (DGKα liposome (LIPGLO) assay) it was 490 nM. The EC50 in the assay with Human venous whole blood (setting [1]) turned out to be 20000 nM.

Turning to `CC(C)c1nnc(C(c2ccc(F)cc2)N2C[C@H](C)N(c3cc(=O)n(C)c4ccc(C#N)nc34)C[C@H]2C)s1` (single isomer, unassigned) [Example 772], the IC50 at human DGKζ (DGKζ liposome (LIPGLO) assay) amounted to 27 nM; at human DGKα (DGKα liposome (LIPGLO) assay), 4.7 nM. Besides, the concentration for a half-maximal effect (EC50) with Human venous whole blood (setting [2]) is 1400 nM.

In the case of `CC[C@@H]1CN(c2cc(=O)n(C)c3ccc(C#N)nc23)[C@@H](C)CN1C(C)c1ccc(OC)cc1` (single isomer, unassigned) [Example 482], the IC50 on human DGKζ (liposome (LIPGLO) assay) came out at 170 nM; at human DGKα (liposome (LIPGLO) assay), 130 nM. The EC50 in the assay on Human venous whole blood (setting [3]) turned out to be 290 nM.

Regarding `Cc1ccc(C(c2cccc(F)c2)N2C[C@H](C)N(c3cc(=O)n(C)c4ccc(C#N)nc34)C[C@H]2C)cn1` (single isomer, unassigned) [Example 395], the IC50 at human DGKζ (liposome (LIPGLO) assay) was 7800 nM; on human DGKα (liposome (LIPGLO) assay) it was 48000 nM. In the assay with Human venous whole blood (setting [3]), the EC50 came out at 6300 nM.

With `Cc1cccc(CN2CCN(c3c(C#N)c(=O)n(C)c4ccc(C#N)nc34)C[C@H]2C)n1` [Example 988], the IC50 at human DGKζ (DGKζ liposome (LIPGLO) assay) stood at 5300 nM; at human DGKα (DGKα liposome (LIPGLO) assay), 2800 nM. Besides, the EC50 in the assay with Human venous whole blood (setting [1]) worked out at 20000 nM.

`C[C@@H]1CN(c2c(C#N)c(=O)n(C)c3ccc(C#N)nc23)[C@@H](C)CN1C(c1ccc(F)cc1)c1cn(C)cn1` (single isomer, unassigned) [Example 853]: the results for the IC50 on human DGKζ (DGKζ liposome (LIPGLO) assay) and on human DGKα (DGKα liposome (LIPGLO) assay) were 38000 nM and 19000 nM, respectively. Besides, the EC50 with Human venous whole blood (setting [1]) stood at 20000 nM.

Consider `CC[C@H]1CN(C(c2ccc(F)cc2)c2nc(C3CC3)cs2)[C@H](CC)CN1c1cc(=O)n(C)c2ccc(C#N)nc12` (stereo partly drawn) [Example 1067], for which the IC50 at human DGKζ (liposome (LIPGLO) assay) turned out to be 47 nM; on human DGKα (liposome (LIPGLO) assay), 79 nM. Besides, the EC50 with Human venous whole blood (setting [4]) was determined as 11 nM.

`C[C@@H]1CN(c2cc(=O)n(C)c3ccc(C#N)nc23)[C@@H](C)CN1C(c1ccc(F)cc1)c1nccn1C` (stereo partly drawn) [Example 714]: the IC50 was found to be 28000 nM at human DGKζ (liposome (LIPGLO) assay) and 18000 nM at human DGKα (liposome (LIPGLO) assay). Besides, the EC50 in the assay on Human venous whole blood (setting [3]) turned out to be 3900 nM.

Consider `CC(c1ccc(C(F)(F)F)cc1)N1C[C@@H](C)N(c2cc(=O)n(C)c3ccc(C#N)nc23)C[C@@H]1C` (single isomer, unassigned) [Example 345], for which the values for the IC50 on human DGKζ (liposome (LIPGLO) assay) and on human DGKα (liposome (LIPGLO) assay) were 33000 nM and 4000 nM, respectively. In the assay on Human venous whole blood (setting [3]), the EC50 stood at 6800 nM.

Take `C[C@@H]1CN(c2cc(=O)n(C)c3ccc(C#N)nc23)[C@@H](C)CN1Cc1cccc(OC(F)(F)F)c1` [Example 586]: the IC50 turned out to be 5600 nM on human DGKζ (liposome (LIPGLO) assay) and 7300 nM on human DGKα (liposome (LIPGLO) assay). Further, the EC50 with Human venous whole blood (setting [4]) worked out at 2300 nM.

Regarding `CCC(c1ccc(C2CC2)cc1F)N1C[C@H](CC)N(c2cc(=O)n(C)c3ccc(C#N)nc23)C[C@H]1CC` (single isomer, unassigned) [Example 1360], the IC50 came to 110 nM on human DGKζ (liposome (LIPGLO) assay) and 830 nM on human DGKα (liposome (LIPGLO) assay). Moreover, the EC50 with Human venous whole blood (setting [3]) turned out to be 700 nM.

With `COCCOc1cc(C(C)N2C[C@H](C)N(c3cc(=O)n(C)c4ccc(C#N)nc34)C[C@H]2C)ccc1C#N` (single isomer, unassigned) [Example 1320], the IC50 on human DGKζ (liposome (LIPGLO) assay) came out at 160 nM; at human DGKα (liposome (LIPGLO) assay), 75000 nM. For the same molecule, the EC50 in the assay on Human venous whole blood (setting [4]) was found to be 7000 nM.

`CC(c1ccc(OC(F)(F)F)c(F)c1)N1C[C@H](C)N(c2cc(=O)n(C)c3ccc(C#N)nc23)C[C@H]1C` (single isomer, unassigned) [Example 1270]: the IC50 at human DGKζ (liposome (LIPGLO) assay) worked out at 2700 nM; at human DGKα (liposome (LIPGLO) assay) it was 1700 nM. Further, in the assay with Human venous whole blood (setting [3]), the EC50 was determined as 8000 nM.

Regarding `C[C@H]1CN(C(c2ccc(F)cc2)c2ccon2)[C@H](CO)CN1c1cc(=O)n(C)c2ccc(C#N)nc12` (single isomer, unassigned) [Example 1392], the IC50 at human DGKζ (liposome (LIPGLO) assay) was found to be 3800 nM; at human DGKα (liposome (LIPGLO) assay), 1900 nM. Also, the EC50 in the assay with Human venous whole blood (setting [3]) was 14000 nM.

`CC(c1ccc(C2(C#N)CC2)cc1F)N1C[C@H](C)N(c2cc(=O)n(C)c3ccc(C#N)nc23)C[C@H]1C` (single isomer, unassigned) [Example 1252]: the IC50 on human DGKζ (liposome (LIPGLO) assay) stood at 3100 nM; on human DGKα (liposome (LIPGLO) assay), 5700 nM. The EC50 with Human venous whole blood (setting [4]) turned out to be 7700 nM.

In the case of `C[C@@H]1CN(c2cc(=O)n(C)c3ccc(C#N)nc23)[C@@H](C)CN1C(c1ccc(F)cc1)c1nc(N2CCOCC2)no1` (stereo partly drawn) [Example 750], the IC50 at human DGKζ (DGKζ liposome (LIPGLO) assay) worked out at 240 nM; on human DGKα (DGKα liposome (LIPGLO) assay), 480 nM. The EC50 with Human venous whole blood (setting [2]) stood at 150 nM.

As for `C[C@@H]1CN(c2c(C#N)c(=O)n(C)c3ccc(C#N)nc23)CCN1C(c1ccc(F)cc1)c1ccc(C#N)cn1` (single isomer, unassigned) [Example 924], the IC50 was 10000 nM on human DGKζ (DGKζ liposome (LIPGLO) assay) and 3200 nM at human DGKα (DGKα liposome (LIPGLO) assay). Further, the EC50 with Human venous whole blood (setting [2]) was 4000 nM.

For `C[C@H]1CN(Cc2ccc3c(c2)OC(F)(F)O3)[C@H](CO)CN1c1cc(=O)n(C)c2ccc(C#N)nc12` [Example 1390], the IC50 was determined as 15000 nM at human DGKζ (liposome (LIPGLO) assay) and 4000 nM at human DGKα (liposome (LIPGLO) assay). Moreover, in the assay on Human venous whole blood (setting [4]), the 50% effective concentration (EC50) is 14000 nM.

`C[C@@H]1CN(c2cc(=O)n(C)c3ccc(C#N)nc23)[C@@H](C)CN1C(c1ccc(F)cc1)c1ccon1` (single isomer, unassigned) [Example 706]: the IC50 at human DGKζ (liposome (LIPGLO) assay) turned out to be 12000 nM; on human DGKα (liposome (LIPGLO) assay), 1300 nM. Also, the EC50 in the assay on Human venous whole blood (setting [3]) came out at 2900 nM.

`Cc1ccc(C(c2cccc(Cl)c2)N2C[C@H](C)N(c3cc(=O)n(C)c4ccc(C#N)nc34)C[C@H]2C)nc1` (stereo partly drawn) [Example 398, 8-((2S,5R)-4-((3-chlorophenyl)(5-methylpyridin-2-yl)methyl)-2,5-dimethylpiperazin-1-yl)-5-methyl-6-oxo-5,6-dihydro-1,5-naphthyridine-2-carbonitrile]: the IC50 on human DGKζ (liposome (LIPGLO) assay) is 1400 nM; at human DGKα (liposome (LIPGLO) assay) it was 1100 nM. Moreover, the EC50 in the assay on Human venous whole blood (setting [4]) was determined as 410 nM.

On to `C[C@@H]1CN(c2cc(=O)n(C)c3ccc(C#N)nc23)[C@@H](C)CN1C(c1ccc(F)cc1)c1nc(C2CC2)co1` (single isomer, unassigned) [Example 777], for which the values for the IC50 on human DGKζ (DGKζ liposome (LIPGLO) assay) and on human DGKα (DGKα liposome (LIPGLO) assay) were 750 nM and 68 nM, respectively. The EC50 with Human venous whole blood (setting [1]) came out at 770 nM.

Turning to `Cc1ccc(C(c2ccc(F)cc2)N2CCN(c3c(C#N)c(=O)n(C)c4ccc(C#N)nc34)C[C@H]2C)cc1` (stereo partly drawn) [Example 888], the IC50 at human DGKζ (DGKζ liposome (LIPGLO) assay) was found to be 330 nM; at human DGKα (DGKα liposome (LIPGLO) assay), 510 nM. For the same molecule, the EC50 in the assay with Human venous whole blood (setting [1]) was 1200 nM.

In the case of `COCC(F)(F)C(c1ccc(F)cc1)N1C[C@H](C)N(c2cc(=O)n(C)c3ccc(C#N)nc23)C[C@H]1C` (single isomer, unassigned) [Example 1313], the results for the IC50 on human DGKζ (liposome (LIPGLO) assay) and on human DGKα (liposome (LIPGLO) assay) were 5300 nM and 2200 nM, respectively. In addition, the EC50 with Human venous whole blood (setting [4]) was 4800 nM.

On to `CC[C@H]1CN(C(c2cccc(F)c2)c2ccc(C)cn2)[C@H](C)CN1c1cc(=O)n(C)c2ccc(C#N)nc12` (single isomer, unassigned) [Example 1126], for which the IC50 is 3000 nM on human DGKζ (liposome (LIPGLO) assay) and 1200 nM at human DGKα (liposome (LIPGLO) assay). In addition, in the assay with Human venous whole blood (setting [3]), the EC50 came out at 950 nM.

As to `C[C@@H]1CN(c2cc(=O)n(C)c3ccc(C#N)nc23)[C@@H](C)CN1C(c1ccc(F)cc1)c1ccnc(C(C)(C)C)n1` (single isomer, unassigned) [Example 409], the IC50 worked out at 53 nM on human DGKζ (liposome (LIPGLO) assay) and 5300 nM at human DGKα (liposome (LIPGLO) assay). Further, the EC50 in the assay with Human venous whole blood (setting [3]) was 430 nM.

Regarding `CCc1ccc(C(c2ccc(F)cc2)N2C[C@H](C)N(c3c(C#N)c(=O)n(C)c4ccc(C#N)nc34)C[C@H]2C)cc1` (single isomer, unassigned) [Example 812], the figures for the IC50 at human DGKζ (DGKζ liposome (LIPGLO) assay) and on human DGKα (DGKα liposome (LIPGLO) assay) were 510 nM and 17000 nM, respectively. Moreover, the EC50 in the assay with Human venous whole blood (setting [2]) was found to be 2800 nM.

What is called IC50 is the concentration that gives 50% inhibition. Broadly, the EC50 is the concentration at which the effect is half-maximal.
